Experiments:
[1] = tested on: 1-aminocryclopropane-1-carboxylate oxidase-like protein (gene 6, Solyc11g072100.1); assay: qRT-PCR expression of gene 6 in tomato leaves; assay type: in vivo, Tomato ecotype corbarino; set-up: key: relative expression normalized to a-tubulin housekeeping gene
Protocol: (§1) Tomato ecotype “corbarino” reported to be susceptible to TSWV infection was used in the experiment. Plants were grown in pots in a climatic chamber with a photoperiod of 16/8 hour at 25° C.
(§2) The viral strain (TSWV PV PV-0393) was utilized in the experiment. The virus was mechanically inoculated and propagated on tomato “corbarino”. The inoculum was prepared in an ice-cooled mortar grounding 1 gr of infected tomato tissue in 10 ml of Na-phosphate buffer 0.01M. The fresh prepared inoculum was stored in ice before use. Tomato plants at BBCH16 were dusted with Carborundum 600 mesh and selected leaves were rubbed with some droplets of inoculum. After 5 min. plants were sprayed with sterile water to remove the excess of inoculum and preserve the cell turgor.
(§3) Four treatments were compared: i) Mock inoculated; ii) TSWV; iii) 0.25% Laminarin; iv) 0.25% Laminarin+TSWV. In the last treatment the virus was inoculated 24 hrs after the laminarin application.
(§4) Total RNA was extracted from systemic infected tomato leaves by using the Quick-RNA Plant Kit (Zymo Research) following the manufacturer instructions. The extractions were carried out using three plants after 12 h, 24 h, 48 h, 72 h, 7 days after inoculation. Leaves were instantly frozen in liquid nitrogen after cutting to avoid any deterioration of the sample as well as any defense reaction. The RNA concentration was quantified by measuring the absorbance at 260 nm using a Nanodrop 2000 (Thermofisher). The purity of all of the RNA samples was assessed at an absorbance ratio of OD260/280 and OD260/230, while its structural integrity was checked by agarose gel electrophoresis. Only high-quality RNA with OD 260/280 and OD 260/230>2 was used for subsequent steps. Single-stranded cDNA was synthesized from 1 μg of total RNA using an iScript™ Select cDNA Synthesis Kit and random hexamers as primers (Bio-Rad, Milan, Italy), according to the manufacturer's instructions. Three biological replicates were created from the 3 leaves collected to test 15 genes. Alpha tubulin was used as reference gene.
(§5) qPCR reactions were performed with BioRad (Applied Biosystems, Foster City, CA, USA) using SYBR R Green. Each reaction was performed in 20 μl containing 10 μl of 2× Power SYBR Green PCR Master Mix (Life Technologies), 0.2-0.3 μM primers and cDNA samples diluted 1:20. Each qPCR reaction was performed in triplicate. Reactions were run using the cycling parameter described previously (Reid et al., 2006) and the qPCR data were analyzed by the Ct method (Pfaffl, 2001). In order to analyze the qPCR data, a-tubulin gene was used as housekeeping to determine the relative expression level of the other genes analyzed in this work. For the determination of qPCR efficiency of each primer pairs, a standard curve was performed using the following cDNA dilutions: 1:4, 1:16, 1:64; 1:256 and 1:1024. Every measurement was made in triplicate. The corresponding qPCR efficiencies (E) were calculated for every primer pair with the software 7300 System SDS software (Applied Biosystems, Foster City, CA, USA) according to the equation E=(10−1/slope−1)×100 (Rutledge and Stewart, 2008).
(§6) The significance of the differences between the gene expressions levels were compared by one-way ANOVA (p=0.01) and the means were separated by Tukey post-hoc test using SPSS ver.26 ([…]).

[2] = tested on: Nac transcription factor 29-like (gene 8, Solyc05g007770.2); assay: qRT-PCR expression of gene 8 in tomato leaves; assay type: in vivo, Tomato ecotype corbarino; set-up: key: relative expression normalized to a-tubulin housekeeping gene
Protocol: as §1, §2, §3, §4, §5, §6

laminarin was tested, and the RQ1 ([1]; 12 hr, Laminarin alone) was 0.9088, the RQ2 ([1]; 12 hr, Laminarin alone) was 0.971 and the RQ3 ([1]; 12 hr, Laminarin alone) was 0.8924. It also gave an RQ mean ([1]; 12 hr, Laminarin alone) of 0.9241, an RQ1 ([1]; 24 hr, Laminarin + virus) of 13.422 and an RQ2 ([1]; 24 hr, Laminarin + virus) of 17.528. It also gave an RQ3 ([1]; 24 hr, Laminarin + virus) of 12.610, an RQ mean ([1]; 24 hr, Laminarin + virus) of 14.520 and an RQ1 ([1]; 24 hr, Laminarin alone) of 16.709. It also gave an RQ2 ([1]; 24 hr, Laminarin alone) of 18.603, an RQ3 ([1]; 24 hr, Laminarin alone) of 0.8182 and an RQ mean ([1]; 24 hr, Laminarin alone) of 14.498. The RQ1 ([1]; 48 hr, Laminarin + virus) was 14.823, the RQ2 ([1]; 48 hr, Laminarin + virus) was 17.395 and the RQ3 ([1]; 48 hr, Laminarin + virus) was 0.9742. For the same substance, the RQ mean ([1]; 48 hr, Laminarin + virus) was 13.987, the RQ1 ([1]; 48 hr, Laminarin alone) was 16.033 and the RQ2 ([1]; 48 hr, Laminarin alone) was 16.927. For the same substance, the RQ3 ([1]; 48 hr, Laminarin alone) was 10.675, the RQ mean ([1]; 48 hr, Laminarin alone) was 14.545 and the RQ1 ([1]; 72 hr, Laminarin + virus) was 26.404. The RQ2 ([1]; 72 hr, Laminarin + virus) was 20.406, the RQ3 ([1]; 72 hr, Laminarin + virus) was 19.154 and the RQ mean ([1]; 72 hr, Laminarin + virus) was 21.988. The RQ1 ([1]; 72 hr, Laminarin alone) was 27.013, the RQ2 ([1]; 72 hr, Laminarin alone) was 20.615 and the RQ3 ([1]; 72 hr, Laminarin alone) was 19.604. For the same substance, the RQ mean ([1]; 72 hr, Laminarin alone) was 22.410, the RQ1 ([2]; 12 hr, Laminarin + virus) was 0.9892 and the RQ2 ([2]; 12 hr, Laminarin + virus) was 10.375. It also gave an RQ3 ([2]; 12 hr, Laminarin + virus) of 10.132, an RQ mean ([2]; 12 hr, Laminarin + virus) of 10.133 and an RQ1 ([2]; 12 hr, Laminarin alone) of 0.8695. It also gave an RQ2 ([2]; 12 hr, Laminarin alone) of 0.9166, an RQ3 ([2]; 12 hr, Laminarin alone) of 10.042 and an RQ mean ([2]; 12 hr, Laminarin alone) of 0.9301. It also gave an RQ1 ([2]; 24 hr, Laminarin + virus) of 11.335, an RQ2 ([2]; 24 hr, Laminarin + virus) of 11.617 and an RQ3 ([2]; 24 hr, Laminarin + virus) of 0.9361. It also gave an RQ mean ([2]; 24 hr, Laminarin + virus) of 10.771, an RQ1 ([2]; 24 hr, Laminarin alone) of 12.571 and an RQ2 ([2]; 24 hr, Laminarin alone) of 13.299. It also gave an RQ3 ([2]; 24 hr, Laminarin alone) of 11.584, an RQ mean ([2]; 24 hr, Laminarin alone) of 12.485 and an RQ1 ([2]; 48 hr, Laminarin + virus) of 13.157. The RQ2 ([2]; 48 hr, Laminarin + virus) was 0.7588, the RQ3 ([2]; 48 hr, Laminarin + virus) was 11.274 and the RQ mean ([2]; 48 hr, Laminarin + virus) was 10.673. It also gave an RQ1 ([2]; 48 hr, Laminarin alone) of 12.258, an RQ2 ([2]; 48 hr, Laminarin alone) of 0.9690 and an RQ3 ([2]; 48 hr, Laminarin alone) of 15.958. The RQ mean ([2]; 48 hr, Laminarin alone) was 12.635, the RQ1 ([2]; 72 hr, Laminarin + virus) was 48.220 and the RQ2 ([2]; 72 hr, Laminarin + virus) was 49.687. It also gave an RQ3 ([2]; 72 hr, Laminarin + virus) of 22.018, an RQ mean ([2]; 72 hr, Laminarin + virus) of 39.975 and an RQ1 ([2]; 72 hr, Laminarin alone) of 24.387. The RQ2 ([2]; 72 hr, Laminarin alone) was 43.671, the RQ3 ([2]; 72 hr, Laminarin alone) was 32.797 and the RQ mean ([2]; 72 hr, Laminarin alone) was 33.618.

From US20240099214A1, “PLANT DEFENCE GENE EXPRESSION” (UPL Corporation Limited, priority 2021, published 2024)
